From PMC6199744, “Development of Chemical Proteomics for the Folateome and Analysis of the Kinetoplastid Folateome” (ACS Infectious Diseases, 2018) come the findings set out here.

Holding throughout (type): binding
The target of assay [1] is T1, HeLa cell extract proteins (Homo sapiens, UniProt P24534).
T1 construct: endogenous in cells; host or cells: HeLa cell extract
T1 sequence (P24534 1-225): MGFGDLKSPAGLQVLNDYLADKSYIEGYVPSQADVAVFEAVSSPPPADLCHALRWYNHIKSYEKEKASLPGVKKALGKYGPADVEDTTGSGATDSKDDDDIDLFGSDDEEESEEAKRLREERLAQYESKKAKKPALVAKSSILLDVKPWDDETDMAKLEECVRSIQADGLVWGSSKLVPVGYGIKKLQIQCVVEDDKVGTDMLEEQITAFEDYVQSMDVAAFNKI

The target in assay [2] is T2, HeLa cell extract proteins (Homo sapiens, UniProt Q9H1A4).
T2 construct: endogenous in cells; host or cells: HeLa cell extract

In assay [3] the target is T3, HeLa cell extract proteins (Homo sapiens, UniProt P09622).
T3 construct: endogenous in cells; host or cells: HeLa cell extract
T3 sequence (P09622 36-509): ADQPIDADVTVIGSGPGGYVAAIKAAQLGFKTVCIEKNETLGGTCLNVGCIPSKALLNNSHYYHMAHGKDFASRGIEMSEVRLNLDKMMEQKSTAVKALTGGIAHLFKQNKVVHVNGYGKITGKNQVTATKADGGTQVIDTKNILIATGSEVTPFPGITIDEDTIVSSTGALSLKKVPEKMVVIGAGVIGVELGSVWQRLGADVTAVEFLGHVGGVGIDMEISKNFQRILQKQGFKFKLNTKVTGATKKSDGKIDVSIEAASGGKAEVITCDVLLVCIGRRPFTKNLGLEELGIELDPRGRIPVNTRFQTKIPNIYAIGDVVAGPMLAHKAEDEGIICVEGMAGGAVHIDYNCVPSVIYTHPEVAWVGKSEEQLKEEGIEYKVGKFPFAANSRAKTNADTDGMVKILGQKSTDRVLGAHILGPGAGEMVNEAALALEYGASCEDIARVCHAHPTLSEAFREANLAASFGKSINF

In assay [4] the target is T4, HeLa cell extract proteins (Homo sapiens, UniProt P23526).
T4 construct: endogenous in cells; host or cells: HeLa cell extract

Assay [5] deals with T5, HeLa cell extract proteins (Homo sapiens, UniProt Q06830).
T5 construct: endogenous in cells; host or cells: HeLa cell extract
T5 sequence (Q06830 1-199): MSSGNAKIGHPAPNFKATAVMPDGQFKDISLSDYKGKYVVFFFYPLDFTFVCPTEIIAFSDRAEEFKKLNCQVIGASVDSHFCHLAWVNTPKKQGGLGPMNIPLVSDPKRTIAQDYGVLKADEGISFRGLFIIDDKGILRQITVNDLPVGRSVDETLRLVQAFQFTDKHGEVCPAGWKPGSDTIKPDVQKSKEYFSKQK

The target of assay [6] is T6, HeLa cell extract proteins (Homo sapiens, UniProt P30153).
T6 construct: endogenous in cells; host or cells: HeLa cell extract

Assay [7] has as its target T7, HeLa cell extract proteins (Homo sapiens, UniProt Q00839).
T7 construct: endogenous in cells; host or cells: HeLa cell extract

For assay [8], the target named is T8, HeLa cell extract proteins (Homo sapiens, UniProt O43148).
T8 construct: endogenous in cells; host or cells: HeLa cell extract

In assay [9] the target is T9, HeLa cell extract proteins (Homo sapiens, UniProt P37802).
T9 construct: endogenous in cells; host or cells: HeLa cell extract

Assay [10] has as its target T10, HeLa cell extract proteins (Homo sapiens, UniProt Q53GQ0).
T10 construct: endogenous in cells; host or cells: HeLa cell extract
T10 sequence (Q53GQ0 1-312): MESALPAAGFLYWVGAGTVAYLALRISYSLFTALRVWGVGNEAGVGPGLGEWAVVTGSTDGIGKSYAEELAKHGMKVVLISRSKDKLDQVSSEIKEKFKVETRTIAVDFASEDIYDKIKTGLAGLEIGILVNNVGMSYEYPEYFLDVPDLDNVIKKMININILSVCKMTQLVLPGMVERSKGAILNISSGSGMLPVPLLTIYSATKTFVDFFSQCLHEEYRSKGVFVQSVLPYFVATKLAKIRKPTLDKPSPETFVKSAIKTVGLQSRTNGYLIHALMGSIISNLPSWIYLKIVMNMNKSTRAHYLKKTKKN

In assay [11] the target is T11, HeLa cell extract proteins (Homo sapiens, UniProt Q08209).
T11 construct: endogenous in cells; host or cells: HeLa cell extract

For assay [12], the target named is T12, HeLa cell extract proteins (Homo sapiens, UniProt Q92616).
T12 construct: endogenous in cells; host or cells: HeLa cell extract

Assay [13] addresses T13, HeLa cell extract proteins (Homo sapiens, UniProt O60664).
T13 construct: endogenous in cells; host or cells: HeLa cell extract
T13 sequence (O60664 1-434): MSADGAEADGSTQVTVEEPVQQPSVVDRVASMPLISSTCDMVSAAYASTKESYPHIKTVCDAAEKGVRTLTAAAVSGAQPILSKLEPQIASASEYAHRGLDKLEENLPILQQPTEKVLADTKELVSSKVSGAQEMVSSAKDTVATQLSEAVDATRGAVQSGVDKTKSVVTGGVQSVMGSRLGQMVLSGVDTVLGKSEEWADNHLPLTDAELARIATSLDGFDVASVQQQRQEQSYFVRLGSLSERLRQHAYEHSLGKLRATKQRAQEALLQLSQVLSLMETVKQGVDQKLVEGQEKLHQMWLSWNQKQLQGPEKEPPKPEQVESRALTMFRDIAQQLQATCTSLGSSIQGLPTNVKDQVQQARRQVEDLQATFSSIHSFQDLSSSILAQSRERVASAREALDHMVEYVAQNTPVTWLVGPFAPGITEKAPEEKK

Assay [14] has as its target T14, HeLa cell extract proteins (Homo sapiens, UniProt P50395).
T14 construct: endogenous in cells; host or cells: HeLa cell extract
T14 sequence (P50395 1-445): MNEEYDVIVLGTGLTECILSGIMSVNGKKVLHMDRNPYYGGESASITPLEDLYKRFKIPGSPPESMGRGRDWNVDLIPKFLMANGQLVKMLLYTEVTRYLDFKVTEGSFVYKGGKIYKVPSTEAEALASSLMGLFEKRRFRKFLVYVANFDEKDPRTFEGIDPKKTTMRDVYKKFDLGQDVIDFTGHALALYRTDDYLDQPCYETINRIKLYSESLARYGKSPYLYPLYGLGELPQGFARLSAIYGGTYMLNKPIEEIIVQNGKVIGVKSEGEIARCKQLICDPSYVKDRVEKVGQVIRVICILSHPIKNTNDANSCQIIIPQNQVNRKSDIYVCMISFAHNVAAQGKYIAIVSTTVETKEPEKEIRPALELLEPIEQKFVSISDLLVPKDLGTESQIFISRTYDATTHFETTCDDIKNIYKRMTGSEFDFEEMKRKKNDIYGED

The mark [15] stands for this setting: HeLa, protein ANAPC1 (ANAPHASE-PROMOTING COMPLEX SUBUNIT 1).
The mark [16] stands for this setting: captured protein HSD17B12, HeLa.

Where two headings read alike, the source gives them in different places.

T8 sequence (O43148 whole entry): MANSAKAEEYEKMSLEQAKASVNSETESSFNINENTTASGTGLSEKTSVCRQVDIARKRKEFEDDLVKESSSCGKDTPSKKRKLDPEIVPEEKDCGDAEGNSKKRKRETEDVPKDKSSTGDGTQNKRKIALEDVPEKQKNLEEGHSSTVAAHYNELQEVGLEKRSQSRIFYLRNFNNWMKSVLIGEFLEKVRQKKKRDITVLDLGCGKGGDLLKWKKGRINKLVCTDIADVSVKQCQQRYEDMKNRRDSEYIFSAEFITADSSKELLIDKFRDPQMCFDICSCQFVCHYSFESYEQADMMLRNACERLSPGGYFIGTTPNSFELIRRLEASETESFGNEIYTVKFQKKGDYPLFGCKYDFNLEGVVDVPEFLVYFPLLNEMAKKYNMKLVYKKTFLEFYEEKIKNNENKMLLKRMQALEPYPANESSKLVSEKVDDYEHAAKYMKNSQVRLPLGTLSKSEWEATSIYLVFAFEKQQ
T12 sequence (Q92616 whole entry): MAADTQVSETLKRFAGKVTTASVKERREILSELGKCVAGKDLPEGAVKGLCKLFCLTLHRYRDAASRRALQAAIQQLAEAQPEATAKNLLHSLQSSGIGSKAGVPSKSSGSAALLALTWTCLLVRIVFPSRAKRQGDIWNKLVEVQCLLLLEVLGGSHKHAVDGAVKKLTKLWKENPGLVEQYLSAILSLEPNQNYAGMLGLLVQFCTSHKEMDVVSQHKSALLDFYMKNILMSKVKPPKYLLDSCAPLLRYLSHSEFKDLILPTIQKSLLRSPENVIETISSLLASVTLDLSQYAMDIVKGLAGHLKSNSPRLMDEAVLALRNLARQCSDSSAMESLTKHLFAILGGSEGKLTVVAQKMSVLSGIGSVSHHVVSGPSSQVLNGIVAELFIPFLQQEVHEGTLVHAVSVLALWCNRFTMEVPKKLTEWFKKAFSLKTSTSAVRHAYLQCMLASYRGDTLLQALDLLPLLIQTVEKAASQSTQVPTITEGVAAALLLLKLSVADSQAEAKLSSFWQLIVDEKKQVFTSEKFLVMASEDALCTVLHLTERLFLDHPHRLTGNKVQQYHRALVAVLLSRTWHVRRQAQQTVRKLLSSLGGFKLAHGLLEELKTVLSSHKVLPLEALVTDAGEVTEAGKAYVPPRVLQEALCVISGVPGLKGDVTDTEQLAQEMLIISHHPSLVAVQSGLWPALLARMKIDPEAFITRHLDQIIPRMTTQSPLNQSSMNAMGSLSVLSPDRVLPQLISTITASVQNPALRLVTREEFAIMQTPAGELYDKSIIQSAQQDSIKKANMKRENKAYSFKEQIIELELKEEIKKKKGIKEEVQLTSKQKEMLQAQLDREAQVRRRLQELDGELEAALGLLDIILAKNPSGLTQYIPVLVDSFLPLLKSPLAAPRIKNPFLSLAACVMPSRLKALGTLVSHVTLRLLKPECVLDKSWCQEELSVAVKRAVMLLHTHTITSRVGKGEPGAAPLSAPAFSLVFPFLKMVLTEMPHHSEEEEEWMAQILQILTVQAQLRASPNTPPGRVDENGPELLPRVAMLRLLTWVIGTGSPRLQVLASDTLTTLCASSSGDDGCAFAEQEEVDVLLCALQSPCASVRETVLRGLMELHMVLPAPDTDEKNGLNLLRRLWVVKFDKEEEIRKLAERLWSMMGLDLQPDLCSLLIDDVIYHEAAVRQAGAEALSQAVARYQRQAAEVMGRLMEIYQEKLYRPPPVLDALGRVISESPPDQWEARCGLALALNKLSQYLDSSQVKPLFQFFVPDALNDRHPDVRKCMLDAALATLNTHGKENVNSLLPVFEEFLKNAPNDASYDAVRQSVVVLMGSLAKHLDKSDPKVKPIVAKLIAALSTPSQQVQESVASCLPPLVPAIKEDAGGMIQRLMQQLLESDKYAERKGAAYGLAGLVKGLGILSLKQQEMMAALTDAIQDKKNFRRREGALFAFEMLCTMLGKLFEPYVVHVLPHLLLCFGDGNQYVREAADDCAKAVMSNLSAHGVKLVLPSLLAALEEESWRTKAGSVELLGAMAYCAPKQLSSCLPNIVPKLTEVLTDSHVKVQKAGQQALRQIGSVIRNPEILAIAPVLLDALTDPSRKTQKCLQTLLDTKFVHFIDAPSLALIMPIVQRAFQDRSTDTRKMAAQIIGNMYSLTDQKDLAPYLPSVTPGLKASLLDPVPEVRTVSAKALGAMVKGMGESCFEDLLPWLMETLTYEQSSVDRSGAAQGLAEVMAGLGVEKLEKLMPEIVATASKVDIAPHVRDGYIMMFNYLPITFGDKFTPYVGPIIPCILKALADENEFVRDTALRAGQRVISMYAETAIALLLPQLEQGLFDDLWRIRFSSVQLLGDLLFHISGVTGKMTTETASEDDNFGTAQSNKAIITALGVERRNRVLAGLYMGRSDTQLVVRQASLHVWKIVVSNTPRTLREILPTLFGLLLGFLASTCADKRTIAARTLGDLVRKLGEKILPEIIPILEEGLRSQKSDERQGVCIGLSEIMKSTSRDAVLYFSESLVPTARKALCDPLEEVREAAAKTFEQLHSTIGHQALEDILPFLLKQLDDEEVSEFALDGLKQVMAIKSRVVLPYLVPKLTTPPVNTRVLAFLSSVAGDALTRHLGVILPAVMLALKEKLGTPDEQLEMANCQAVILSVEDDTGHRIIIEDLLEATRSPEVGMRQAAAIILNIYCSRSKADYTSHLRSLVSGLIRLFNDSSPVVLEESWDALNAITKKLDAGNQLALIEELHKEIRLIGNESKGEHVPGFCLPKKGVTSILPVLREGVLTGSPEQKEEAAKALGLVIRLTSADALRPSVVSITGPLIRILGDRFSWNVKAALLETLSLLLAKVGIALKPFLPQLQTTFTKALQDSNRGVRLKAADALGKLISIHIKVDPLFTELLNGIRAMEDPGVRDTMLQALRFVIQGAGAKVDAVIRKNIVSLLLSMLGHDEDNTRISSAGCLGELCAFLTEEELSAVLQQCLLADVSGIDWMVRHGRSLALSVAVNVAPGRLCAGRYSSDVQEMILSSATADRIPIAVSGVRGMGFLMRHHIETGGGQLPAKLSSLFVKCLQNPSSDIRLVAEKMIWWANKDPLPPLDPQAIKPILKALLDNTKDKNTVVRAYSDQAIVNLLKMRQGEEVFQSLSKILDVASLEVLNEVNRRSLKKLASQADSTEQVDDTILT
T6 sequence (P30153 whole entry): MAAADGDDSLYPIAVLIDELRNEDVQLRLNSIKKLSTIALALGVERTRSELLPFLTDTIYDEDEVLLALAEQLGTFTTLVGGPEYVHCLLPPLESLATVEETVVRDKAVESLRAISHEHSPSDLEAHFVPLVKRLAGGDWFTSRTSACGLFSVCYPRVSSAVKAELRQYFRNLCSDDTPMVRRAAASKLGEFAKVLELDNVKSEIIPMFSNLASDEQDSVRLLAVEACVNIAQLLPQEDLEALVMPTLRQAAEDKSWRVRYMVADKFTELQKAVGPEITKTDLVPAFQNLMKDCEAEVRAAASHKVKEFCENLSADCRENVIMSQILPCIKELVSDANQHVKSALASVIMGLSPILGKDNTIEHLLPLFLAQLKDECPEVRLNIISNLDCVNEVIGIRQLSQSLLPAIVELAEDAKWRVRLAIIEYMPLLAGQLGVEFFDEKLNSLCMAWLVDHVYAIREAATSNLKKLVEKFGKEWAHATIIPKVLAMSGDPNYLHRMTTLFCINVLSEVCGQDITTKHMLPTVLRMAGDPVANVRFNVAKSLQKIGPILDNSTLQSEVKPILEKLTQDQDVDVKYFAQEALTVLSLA
T4 sequence (P23526 whole entry): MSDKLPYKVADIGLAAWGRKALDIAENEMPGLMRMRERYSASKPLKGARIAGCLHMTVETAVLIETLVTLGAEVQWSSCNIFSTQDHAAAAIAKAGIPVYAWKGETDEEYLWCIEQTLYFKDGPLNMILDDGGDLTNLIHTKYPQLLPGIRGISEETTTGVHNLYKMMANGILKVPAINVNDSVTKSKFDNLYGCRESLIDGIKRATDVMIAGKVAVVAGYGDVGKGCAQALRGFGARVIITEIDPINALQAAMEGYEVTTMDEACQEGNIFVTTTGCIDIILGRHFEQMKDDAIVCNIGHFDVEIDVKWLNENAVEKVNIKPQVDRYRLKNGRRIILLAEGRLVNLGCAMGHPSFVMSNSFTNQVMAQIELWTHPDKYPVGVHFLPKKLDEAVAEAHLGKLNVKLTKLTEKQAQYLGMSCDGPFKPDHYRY
T7 sequence (Q00839 whole entry): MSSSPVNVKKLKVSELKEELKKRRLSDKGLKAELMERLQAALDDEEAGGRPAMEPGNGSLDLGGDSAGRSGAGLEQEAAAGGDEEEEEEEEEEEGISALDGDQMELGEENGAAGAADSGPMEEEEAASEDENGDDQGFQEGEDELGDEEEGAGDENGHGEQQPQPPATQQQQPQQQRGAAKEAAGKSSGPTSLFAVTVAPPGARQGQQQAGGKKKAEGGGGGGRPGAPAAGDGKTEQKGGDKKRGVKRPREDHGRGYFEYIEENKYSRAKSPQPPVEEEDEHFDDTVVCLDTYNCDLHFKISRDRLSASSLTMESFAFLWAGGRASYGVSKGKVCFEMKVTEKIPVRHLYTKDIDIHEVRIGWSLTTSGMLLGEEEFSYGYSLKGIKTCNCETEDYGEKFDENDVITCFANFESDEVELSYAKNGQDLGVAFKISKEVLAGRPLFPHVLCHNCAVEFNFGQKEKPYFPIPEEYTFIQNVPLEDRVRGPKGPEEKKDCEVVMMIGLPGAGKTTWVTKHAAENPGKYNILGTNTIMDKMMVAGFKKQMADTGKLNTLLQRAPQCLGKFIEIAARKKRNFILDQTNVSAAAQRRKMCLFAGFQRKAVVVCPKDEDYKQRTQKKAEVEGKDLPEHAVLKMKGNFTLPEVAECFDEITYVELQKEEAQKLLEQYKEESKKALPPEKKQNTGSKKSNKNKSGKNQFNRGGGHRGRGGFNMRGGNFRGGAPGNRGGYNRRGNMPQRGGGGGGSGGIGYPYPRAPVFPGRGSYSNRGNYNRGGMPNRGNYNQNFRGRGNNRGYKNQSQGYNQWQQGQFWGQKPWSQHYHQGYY

For `Nc1nc2c(c(=O)[nH]1)N(C=O)C(CNc1ccc(C(=O)N[C@@H](CCC(=O)O)C(=O)O)cc1)CN2` (stereo partly drawn) [LEU, leucovorin], the “fold changes relative to vehicle control” value in assay [1] (protein EEF1B2, HeLa) turned out to be 0.84; in [2] (setting [15]), 1.09; in [3] (HeLa, captured protein DLD) it was 1.01; in assay [4] (HeLa, protein AHCY), 0.98; in assay [5] (HeLa, protein PRDX1) it was 1.01; in assay [6] (HeLa, protein PPP2R1A), 0.97. In addition, the “fold changes relative to vehicle control” value in [7] (protein HNRNPU, HeLa) is 0.8; in [8] (HeLa, captured protein RNMT), 0.88; in assay [9] (HeLa, protein TAGLN2) it was 0.97; in [10] (protein HSD17B12, HeLa), 0.78; in assay [11] (HeLa, protein PPP3CA), 0.97; in [12] (HeLa, captured protein GCN1L1), 1.04. For the same compound, the “fold changes relative to vehicle control” value is on record as 1 in assay [13] (protein M6PRBP1, HeLa) and 0.93 in [14] (protein GDI2, HeLa).

Turning to `Nc1nc2[nH]cc(CCc3ccc(C(=O)N[C@@H](CCC(=O)O)C(=O)O)cc3)c2c(=O)[nH]1` [PTX, pemetrexed], the “fold changes relative to vehicle control” value in assay [1] is 1; in assay [2], 1.1; in assay [3] it was 0.96; in assay [4] it was 0.98; in assay [5], 1.05; in [6], 0.87. The “fold changes relative to vehicle control” value is listed as 0.92 in [7]; 0.83 in assay [8]; 1.18 in assay [9]; 0.91 in [10]; 0.91 in [11]; 1.02 in assay [12]. The “fold changes relative to vehicle control” value in assay [13] is 1.06; in assay [14], 0.9.

As for `CCCCCCOc1ccc(Cc2cnc(N)nc2N)cc1` [compound 1], the “fold changes relative to vehicle control” value in assay [1] (protein EEF1B2, HeLa) came out at 1.03; in [2] (HeLa, protein ANAPC1) it was 1.05; in assay [3] (HeLa, protein DLD) it was 0.96; in [4] (protein AHCY, HeLa), 1.01; in assay [5] (protein PRDX1, HeLa), 1.24; in [6] (HeLa, protein PPP2R1A), 0.95. Also, the “fold changes relative to vehicle control” value in [7] (HeLa, protein HNRNPU) was determined as 0.88; in assay [8] (HeLa, protein RNMT), 0.92; in assay [9] (protein TAGLN2, HeLa), 1.17; in assay [10] (setting [16]), 0.87; in [11] (HeLa, protein PPP3CA) it was 1.1; in [12] (HeLa, protein GCN1L1), 1.07. Also, the “fold changes relative to vehicle control” value is recorded as 1.23 in assay [13] (protein M6PRBP1, HeLa) and 1.06 in [14] (protein GDI2, HeLa).

Turning to `CCCCCCOc1cccc(Cc2cnc(N)nc2N)c1` [compound 2], the “fold changes relative to vehicle control” value is 1.63 in assay [1] (protein EEF1B2, HeLa); 1.15 in assay [2] (HeLa, protein ANAPC1); 0.42 in assay [3] (HeLa, protein DLD); 1.26 in [4] (protein AHCY, HeLa); 2.05 in assay [5] (protein PRDX1, HeLa); 0.95 in assay [6] (HeLa, protein PPP2R1A). The “fold changes relative to vehicle control” value in [7] (HeLa, protein HNRNPU) turned out to be 1.2; in [8] (HeLa, protein RNMT), 0.97; in assay [9] (protein TAGLN2, HeLa) it was 1.66; in assay [10] (setting [16]) it was 0.91; in assay [11] (HeLa, protein PPP3CA) it was 1.13; in assay [12] (HeLa, protein GCN1L1), 1.14. The “fold changes relative to vehicle control” value is reported as 1.68 in assay [13] (protein M6PRBP1, HeLa) and 1.81 in [14] (protein GDI2, HeLa).

With `Nc1nc2cccc(-c3ccccc3)c2n1Cc1ccc(Cl)c(Cl)c1` [compound 3], the “fold changes relative to vehicle control” value is 1.02 in assay [1] (protein EEF1B2, HeLa); 1.21 in assay [2] (HeLa, protein ANAPC1); 1.01 in [3] (HeLa, protein DLD); 0.86 in assay [4] (protein AHCY, HeLa); 0.85 in [5] (protein PRDX1, HeLa); 0.88 in assay [6] (HeLa, protein PPP2R1A). Also, the “fold changes relative to vehicle control” value in assay [7] (HeLa, protein HNRNPU) was found to be 0.96; in assay [8] (HeLa, protein RNMT), 0.93; in assay [9] (protein TAGLN2, HeLa) it was 0.85; in [10] (setting [16]), 1.15; in assay [11] (HeLa, protein PPP3CA), 1.03; in [12] (HeLa, protein GCN1L1) it was 1.16. Besides, the “fold changes relative to vehicle control” value is 0.94 in assay [13] (protein M6PRBP1, HeLa) and 0.72 in assay [14] (protein GDI2, HeLa).

For `NCCOCCOCC(=O)Nc1nc2ncc(CNc3ccc(C(=O)NC(CCC(=O)O)C(=O)O)cc3)nc2c(=O)[nH]1` (stereo not drawn) [compound 6], the “fold changes relative to vehicle control” value in assay [1] (protein EEF1B2, HeLa) is reported as 1.07; in assay [2] (setting [15]) it was 1.1; in assay [3] (HeLa, captured protein DLD), 0.99; in assay [4] (HeLa, protein AHCY), 1.13; in [5] (HeLa, protein PRDX1) it was 1.1; in [6] (HeLa, protein PPP2R1A), 0.86. For the same compound, the “fold changes relative to vehicle control” value was determined as 1.18 in assay [7] (protein HNRNPU, HeLa); 0.79 in [8] (HeLa, captured protein RNMT); 1.2 in assay [9] (HeLa, protein TAGLN2); 0.96 in assay [10] (protein HSD17B12, HeLa); 0.95 in assay [11] (HeLa, protein PPP3CA); 1.15 in assay [12] (HeLa, captured protein GCN1L1). Further, the “fold changes relative to vehicle control” value in assay [13] (protein M6PRBP1, HeLa) came out at 1.27; in [14] (protein GDI2, HeLa), 1.03.
